Experimental data: patent US20250304567A1, “PYRROLIDIONE DERIVATIVES AS INHIBITORS OF NF KAPPA B INDUCING KINASE” (priority 2022, published 2025)
Where two headings read alike, the source gives them in different places.

Columns and labels:
[1] = molecular target: Recombinant Human NF-kappaB-Inducing Kinase (NIK/MAP3K14) (Homo sapiens, UniProt Q99558); test: Inhibition of auto-phosphorylation of recombinant human NIK/MAP3K14 activity (AlphaScreen); format: biochemical; conditions: 5 μM ATP, 1 nM NIK, average if tested more than once
Sequence of Recombinant Human NF-kappaB-Inducing Kinase (NIK/MAP3K14) (Q99558 whole entry): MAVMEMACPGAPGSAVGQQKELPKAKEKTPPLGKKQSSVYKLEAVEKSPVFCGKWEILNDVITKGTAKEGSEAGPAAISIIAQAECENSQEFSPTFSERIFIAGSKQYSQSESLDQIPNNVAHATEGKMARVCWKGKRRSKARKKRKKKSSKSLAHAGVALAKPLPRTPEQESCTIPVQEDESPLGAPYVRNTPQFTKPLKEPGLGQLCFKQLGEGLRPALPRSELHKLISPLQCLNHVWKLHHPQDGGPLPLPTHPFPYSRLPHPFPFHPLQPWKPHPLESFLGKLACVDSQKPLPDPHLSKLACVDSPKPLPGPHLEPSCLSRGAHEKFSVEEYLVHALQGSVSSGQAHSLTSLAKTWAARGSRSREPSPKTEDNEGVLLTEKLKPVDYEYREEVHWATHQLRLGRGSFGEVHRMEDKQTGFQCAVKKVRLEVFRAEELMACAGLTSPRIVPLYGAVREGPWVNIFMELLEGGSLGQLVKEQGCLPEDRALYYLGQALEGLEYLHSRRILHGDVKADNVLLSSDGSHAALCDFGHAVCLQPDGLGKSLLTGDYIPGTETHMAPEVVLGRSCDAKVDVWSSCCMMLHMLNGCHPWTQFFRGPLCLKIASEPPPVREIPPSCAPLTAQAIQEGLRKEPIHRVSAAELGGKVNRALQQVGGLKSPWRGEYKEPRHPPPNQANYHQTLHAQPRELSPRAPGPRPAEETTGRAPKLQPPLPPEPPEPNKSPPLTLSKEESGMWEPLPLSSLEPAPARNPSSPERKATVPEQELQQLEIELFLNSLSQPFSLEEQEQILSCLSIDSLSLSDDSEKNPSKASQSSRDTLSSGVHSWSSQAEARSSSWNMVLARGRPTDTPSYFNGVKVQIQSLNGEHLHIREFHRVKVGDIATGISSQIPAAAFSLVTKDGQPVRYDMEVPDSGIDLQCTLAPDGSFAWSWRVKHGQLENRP
Method in brief: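 AlphaScreen detection of phospho-Ser176/180 after 1 nM GST-NIK auto-phosphorylates for 2 h at 25 °C with 5 μM ATP (50 mM Tris pH 7.5, 0.7% DMSO). IC50s come from sigmoidal curves of % inhibition against log dose, using enzyme-free, ATP-free low controls and full-activity high controls.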

[2] = tested on: p-IKKa levels in L363 (NIK translocated multiple myeloma) cells; test: Effect of compounds on p-IKKa levels in L363 (NIK translocated multiple myeloma) cells (AlphaLISA SureFire Ultra p-IKKa Ser176/180); format: cell-based, human; conditions: average if tested more than once, read-out: Assay 2 IC50
Method in brief: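 Phospho-IKKa (Ser176/180) in lysates quantified by AlphaLISA after 6 h compound exposure, 11-point threefold dilutions, 0.3% DMSO. L363 cells were pre-stimulated overnight and assayed with 250 ng/ml BAFF and 10 μM MG132; % inhibition fitted sigmoidally for IC50, duplicate curves.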

[3] = Homo sapiens, L-363, p-IKKa levels in L363 cells

| Compound | IC50 [1] [nM] | IC50 [2, 3] [nM] | IC50 ([2]; p-IKKa levels in L363 cells) [nM] |
| --- | --- | --- | --- |
| CN1CC[C@@](O)(c2cccc(-c3nc(-c4ccnc(Nc5cn(C)nn5)n4)cs3)c2)C1=O [Example 283, (R)-3-hydroxy-1-methyl-3-(3-(4-(2-((1-methyl-1H-1,2,3-triazol-4-yl)amino)pyrimidin-4-yl)thiazol-2-yl)phenyl)pyrrolidin-2-one] | < 100 | 100 to 500 |  |
| CN1CC[C@@](O)(c2cccc(-c3nc(-c4ccnc(Nc5ccn(-c6ccccc6)n5)n4)cs3)c2)C1=O [Example 284, (R)-3-hydroxy-1-methyl-3-(3-(4-(2-((1-phenyl-1H-pyrazol-3-yl)amino)pyrimidin-4-yl)thiazol-2-yl)phenyl)pyrrolidin-2-one] | < 100 | 100 to 500 |  |
| CN1CC[C@@](O)(c2cccc(-c3nc(-c4ccnc(Nc5ccn(C(C)(C)C)n5)n4)cs3)c2)C1=O [Example 285, (R)-3-(3-(4-(2-((1-(tert-butyl)-1H-pyrazol-3-yl)amino)pyrimidin-4-yl)thiazol-2-yl)phenyl)-3-hydroxy-1-methylpyrrolidin-2-one] | < 100 | 100 to 500 |  |
| CN1CC[C@@](O)(c2cccc(-c3nc(-c4ccnc(Nc5ccn(CCO)n5)n4)cs3)c2)C1=O [Example 286, (R)-3-hydroxy-3-(3-(4-(2-((1-(2-hydroxyethyl)-1H-pyrazol-3-yl)amino)pyrimidin-4-yl)thiazol-2-yl)phenyl)-1-methylpyrrolidin-2-one] | < 100 | 100 to 500 |  |
| CN1CC[C@@](O)(c2cccc(-c3nc(-c4ccnc(Nc5cnn(CC6CC6)c5)n4)cs3)c2)C1=O [Example 287, (R)-3-(3-(4-(2-((1-(cyclopropylmethyl)-1H-pyrazol-4-yl)amino)pyrimidin-4-yl)thiazol-2-yl)phenyl)-3-hydroxy-1-methylpyrrolidin-2-one] | < 100 | 100 to 500 |  |
| CN1CC[C@@](O)(c2cccc(-c3nc(-c4ccnc(Nc5ccn(CC6CC6)n5)n4)cs3)c2)C1=O [Example 288, (R)-3-(3-(4-(2-((1-(cyclopropylmethyl)-1H-pyrazol-3-yl)amino)pyrimidin-4-yl)thiazol-2-yl)phenyl)-3-hydroxy-1-methylpyrrolidin-2-one] | < 100 | 100 to 500 |  |
| CN1CC[C@@](O)(c2cccc(-c3csc(-c4ccnc(Nc5ccn(CC6CC6)n5)n4)n3)c2)C1=O [Example 289, (R)-3-(3-(2-(2-((1-(cyclopropylmethyl)-1H-pyrazol-3-yl)amino)pyrimidin-4-yl)thiazol-4-yl)phenyl)-3-hydroxy-1-methylpyrrolidin-2-one] | > 501 | > 501 |  |
| C[C@H](Nc1nccc(-c2nc(-c3cc([C@]4(O)CCN(C)C4=O)ccn3)cs2)n1)c1ccnn1C [Example 290, (R)-3-Hydroxy-1-methyl-3-(2-(2-(2-(((S)-1-(1-methyl-1H-pyrazol-5-yl)ethyl)amino)pyrimidin-4-yl)thiazol-4-yl)pyridin-4-yl)pyrrolidin-2-one] | < 100 | 100 to 500 |  |
| C[C@@H](Nc1nccc(-c2nc(-c3cc([C@]4(O)CCN(C)C4=O)ccn3)cs2)n1)c1ccnn1C [Example 291, (R)-3-Hydroxy-1-methyl-3-(2-(2-(2-(((R)-1-(1-methyl-1H-pyrazol-5-yl)ethyl)amino)pyrimidin-4-yl)thiazol-4-yl)pyridin-4-yl)pyrrolidin-2-one] | < 100 | 100 to 500 |  |
| Cc1nn(CC(F)F)cc1Nc1nccc(-n2ccc(-c3cc([C@]4(O)CCN(C)C4=O)ccn3)n2)n1 [Example 292, (R)-3-(2-(1-(2-((1-(2,2-Difluoroethyl)-3-methyl-1H-pyrazol-4-yl)amino)pyrimidin-4-yl)-1H-pyrazol-3-yl)pyridin-4-yl)-3-hydroxy-1-methylpyrrolidin-2-one] | < 100 | < 100 |  |
| (trans)-3-hydroxy-1-methyl-3-(3-(4-(2-((1-methyl-1H-pyrazol-3-yl)amino)pyrimidin-4-yl)thiazol-2-yl)phenyl)-5-(trifluoromethyl)pyrrolidin-2-one [Example 37] | > 501 |  | > 501 |
